Source: patent US11060066B2, “Human pluripotent stem cell-based models for predictive developmental neural toxicity” (priority 2014, dated 2021)

Tested on: 3D neural constructs
Assay type: cell-based, human
Description: For toxicity screening experiments, cells were seeded as described above (Examples 1 and 2), but with 65,000 cells/well for ECs+MSCs (also 5:1 ratio) and 15,000 cells/well for microglia/macrophage precursors. Neural constructs were treated with non-toxic or toxic compounds starting at day 14, with media exchanged every 2 days. The following screening protocol was developed by the Thomson lab. Toxic chemicals (FIG. 10E) were chosen based on previous literature support for neurotoxicity (Adams et al., Neurotoxicol Teratol 15(3):193-202 (1993); Cooper et al., Science 280(5369):1603-1607 (1998); Crofton et al., ALTEX-Altern Anim Exp 28(1):9-15 (2011); Eskes et al. (2003); Grandjean et al., Lancet Neurol. 13:330 (2014); Lidsky (2003); Radio et al., Neurotoxicol Teratol 32(1):25-35 (2010); Zurich (2002)). […]
After reverse transcription, RNA is removed by RNaseA and RNaseH treatment. […] The indexed cDNA libraries were pooled and sequenced on an Illumina HiSeq2500 with a single 51 bp read and a 10 bp index read.
RSEM expected read counts for each gene were determined by median normalization (utilizing the median normalization function within EB Seq—version 1.5.3) (Leng et al., Bioinformatics 29(8):1035-1043 (2013)). […]

CCCCCCCC/C=C\CCCCCCCC(=O)O [oleic acid]
SVM prediction as toxic or non-toxic (control): neurotoxin | SVM probability of being toxic (ranking of blinded compounds) (human): higher probability of being toxic than L-741,626 and Ouabain
